{"source": "patent US10588316B2", "about": "(priority 2015, dated 2020)", "key": {"[1]": {"system": "Fusarium graminearum and Fusarium asiaticum", "test": "organism not typed", "type": "cell-based", "conditions": "tebuconazole 0.078 μg/mL; sensitive and fungicide-resistant strains"}, "Fusarium graminearum": {"system": "Fusarium graminearum", "test": "microbe, parasite or virus in culture", "type": "cell-based"}}}
{"substance": "Tebuconazole", "values": [{"measurement": "inhibitory effect on hyphal growth", "setting": "[1]", "value": "~50", "unit": "%"}, {"measurement": "Median Effective Concentration (EC50) for Growth Inhibition", "setting": "Fusarium graminearum; F.g carbendazim-resistant strains", "value": 0.101, "unit": "µg/mL"}, {"measurement": "Median Effective Concentration (EC50) for Growth Inhibition", "setting": "Fusarium graminearum; F.g phenamacril-resistant strains", "value": 0.085, "unit": "µg/mL"}]}
